In patent US10640507B2, “PBD antibacterial agents” (KING'S COLLEGE LONDON, priority 2015, dated 2020):
Converted amounts (≈) assume the structure as drawn. Where two headings read alike, the source gives them in different places.

Columns and labels:
[1] = test system: A. baumannii - NCTC13424; format: cell-based; conditions: drug at 4×MIC
Description: (§1) 1. Grow bacteria overnight.
(§2) 2. Subculture into an autoclaved conical flask containing 10 ml of TSB to an OD of 0.01 (˜1×10^7 Cfu/ml for KP-M6).
(§3) 4. Take aliquots (100 μl) at timepoints (0, 1, 2, 4, 6, 24 hours) and carry out a serial dilution in PBS (to remove drug and to dilute bacteria to countable numbers).
(§4) 5. Use the serial dilution to perform a Miles Misra—i.e. Add 3×10 μl spots of each dilution onto an agar plate. Incubate overnight and count colonies on spots in the morning.
(§5) 6. Control: Subculture bacteria alongside samples but with no antibiotic added. Take aliquots from this at every time point (0, 1, 2, 4, 6, 24 hours) and perform Miles Misra on these too (as detailed in points 4 and 5 above).
(§6) 7. After the first experiment, if the counts seen on Miles-Misra were zero, total viable counts were determined by spreading 200 μl in a streak down the centre of a TSB agar plate, waiting for the liquid to be absorbed and then spreading over the plate and checking for growth inhibition at the sight of the original streak.
(§7) 8. The compound is considered bactericidal if the inoculum was reduced >3 log10 CFU/ml and bacteriostatic if inoculum was reduced by 0-3 log10 CFU/ml.
(§8) Three measurements were taken for each compound at each time point. These measurements were averaged and the standard deviation was also calculated.

[2] = test system: K. pneumonia - NCTC 13438; format: cell-based; conditions: drug at 4×MIC
Description: as §1, §2, §3, §4, §5, §6, §7, §8

[3] = test system: A. baumannii - AYE; format: cell-based; conditions: drug at 4×MIC
Description: as §1, §2, §3, §4, §5, §6, §7, §8

[4] = test system: K. pneumonia - NCTC 13368; format: cell-based; conditions: drug at 4×MIC
Description: as §1, §2, §3, §4, §5, §6, §7, §8

[5] = test system: PA01; test: Effect of efflux pump inhibitors (EPIs) on MIC; format: cell-based, P. aeruginosa; conditions: for MIC: Pseudomonas aeruginosa
Description: (§9) 1. Grow up cultures of bacterial strains to be tested overnight.
(§10) 2. Dilute down overnight cultures to concentration of 1×10^6 bacteria/ml (OD0.01) in Tryptic soy broth (TSB).
(§11) 3. Add 100 μl of TSB media to column 2-column 12 in 96 well plate (keeping column 1 clear).
(§12) 4. Make up compound to a concentration of 64 μg/ml in water.
(§13) 5. Add 100 μl of antibiotic solution to the 1st and 2nd columns.
(§14) 6. Using a multichannel pipette take 100 μl from the 2nd column wells and pipette into 3rd column wells and repeat down the 96 well plate (remember to include controls i.e. uninfected media and media with no antibiotic).
(§15) 7. To each well (except uninfected control row H) add 50 μl/well of EPI at 4× final concentration in TSB.
(§16) 9. In wells used to test the effect of the EPI carbonyl cyanide 3-chlorophenylhydrazone (CCCP) the CCCP is added at 10 μg/ml final concentration.
(§17) 10. In wells used to test the effect of the EPI phenylalanine-arginine β-naphthylamide (PABN) the PABN is added at 25 μg/ml final concentration.
(§18) 11. In wells used to test the effect of the PABN+Mg, the PABN is added at 25 μg/ml final concentration, with 1 mM MgSO4 in TSB.
(§19) 12. Wrap plate with parafilm to prevent evaporation.
(§20) 13. Leave at desired temperature (37° C. unless specified elsewhere) for 20 hours.
(§21) 14. Next day check plates for growth and measure optical density (i.e. absorbance) at a wavelength of 600 nm (OD600).
(§22) Compound KMR-14-33 was tested against a range of bacterial species using the above protocol. Compound PP-A148 was also tested against a more limited range of bacterial species using the above protocol. For KMR-14-33 measurements were carried out for the compound alone, for the compound plus CCCP, for the compound plus PABN and for the compound plus PABN and plus Mg. For PP-A148 measurements were carried out for the compound alone and for the compound plus PABN.

[6] = test system: NCTC 13437; test: Effect of efflux pump inhibitors (EPIs) on MIC; format: cell-based, P. aeruginosa; conditions: for MIC: Pseudomonas aeruginosa
Description: as §9, §10, §11, §12, §13, §14, §15, §16, §17, §18, §19, §20, §21, §22

[7] = test system: NCTC 13424; test: Effect of efflux pump inhibitors (EPIs) on MIC; format: cell-based, A. bauamnnii
Description: as §9, §10, §11, §12, §13, §14, §15, §16, §17, §18, §19, §20, §21, §22

SMILES: COc1cc2c(cc1OCCCC(=O)Nc1cc(C(=O)Nc3ccc4sc(C(=O)N(C)C)cc4c3)n(C)c1)N=C[C@@H]1CCCN1C2=O [KMR-14-33, (S)—N-(2-(dimethylcarbamoyl)benzo[b]thiophen-5-yl)-4-(4-((7-methoxy-5-oxo-2,3,5,11a-tetrahydro-1H-benzo[e]pyrrolo[1,2-a][1,4]-diazepin-8-yl)oxy)butanamido)-1-methyl-1H-pyrrole-2-carboxamide]
- Average (Log CFU/ml) ([1]; time-point 1 hours): 1923.667 Log CFU/ml
- n = 1 (Log CFU/ml) ([1]; time-point 1 hours): 0 Log CFU/ml
- n = 2 (CFU/ml) ([1]; time-point 1 hours): 940 CFU/ml
- n = 3 (CFU/mL) ([1]; time-point 1 hours): 4830 CFU/mL
- Average (Log CFU/ml) ([1]; time-point 2 hours): 0 Log CFU/ml
- n = 1 (Log CFU/ml) ([1]; time-point 2 hours): 0 Log CFU/ml
- n = 2 (Log CFU/ml) ([1]; time-point 2 hours): 0 Log CFU/ml
- n = 3 (Log CFU/ml) ([1]; time-point 2 hours): 0 Log CFU/ml
- Average (Log CFU/ml) ([1]; time-point 4 hours): 0 Log CFU/ml
- n = 1 (Log CFU/ml) ([1]; time-point 4 hours): 0 Log CFU/ml
- n = 2 (Log CFU/ml) ([1]; time-point 4 hours): 0 Log CFU/ml
- n = 3 (Log CFU/ml) ([1]; time-point 4 hours): 0 Log CFU/ml
- Average (Log CFU/ml) ([1]; time-point 6 hours): 0 Log CFU/ml
- n = 1 (Log CFU/ml) ([1]; time-point 6 hours): 0 Log CFU/ml
- n = 2 (Log CFU/ml) ([1]; time-point 6 hours): 0 Log CFU/ml
- n = 3 (Log CFU/ml) ([1]; time-point 6 hours): 0 Log CFU/ml
- Average (Log CFU/ml) ([1]; time-point 24 hours): 2084 Log CFU/ml
- n = 1 (CFU/mL) ([1]; time-point 24 hours): 6250 CFU/mL
- n = 2 (Log CFU/ml) ([1]; time-point 24 hours): 0 Log CFU/ml
- n = 3 (Log CFU/ml) ([1]; time-point 24 hours): 0 Log CFU/ml
- Average (Log CFU/ml) ([2]; time-point 1 hours): 1000000 CFU/ml
- n = 1 (Log CFU/ml) ([2]; time-point 1 hours): 1000000 CFU/ml
- n = 2 (Log CFU/ml) ([2]; time-point 1 hours): 2000000 CFU/ml
- n = 3 (Log CFU/ml) ([2]; time-point 1 hours): 1 CFU/ml
- Average (Log CFU/ml) ([2]; time-point 2 hours): 34 CFU/ml
- n = 1 (Log CFU/ml) ([2]; time-point 2 hours): 0 CFU/ml
- n = 2 (Log CFU/ml) ([2]; time-point 2 hours): 100 CFU/ml
- n = 3 (Log CFU/ml) ([2]; time-point 2 hours): 0 CFU/ml
- Average (Log CFU/ml) ([2]; time-point 4 hours): 0 CFU/ml
- n = 1 (Log CFU/ml) ([2]; time-point 4 hours): 0 CFU/ml
- n = 2 (Log CFU/ml) ([2]; time-point 4 hours): 0 CFU/ml
- n = 3 (Log CFU/ml) ([2]; time-point 4 hours): 0 CFU/ml
- Average (Log CFU/ml) ([2]; time-point 6 hours): 0 CFU/ml
- n = 1 (Log CFU/ml) ([2]; time-point 6 hours): 0 CFU/ml
- n = 2 (Log CFU/ml) ([2]; time-point 6 hours): 0 CFU/ml
- n = 3 (Log CFU/ml) ([2]; time-point 6 hours): 0 CFU/ml
- Average (Log CFU/ml) ([2]; time-point 24 hours): 0 CFU/ml
- n = 1 (Log CFU/ml) ([2]; time-point 24 hours): 0 CFU/ml
- n = 2 (Log CFU/ml) ([2]; time-point 24 hours): 0 CFU/ml
- n = 3 (Log CFU/ml) ([2]; time-point 24 hours): 0 CFU/ml
- Average (Log CFU/ml) ([3]; time-point 1 hours): 0 CFU/ml
- n = 1 (Log CFU/ml) ([3]; time-point 1 hours): 0 CFU/ml
- n = 2 (Log CFU/ml) ([3]; time-point 1 hours): 0 CFU/ml
- n = 3 (Log CFU/ml) ([3]; time-point 1 hours): 0 CFU/ml
- Average (Log CFU/ml) ([3]; time-point 2 hours): 0 CFU/ml
- n = 1 (Log CFU/ml) ([3]; time-point 2 hours): 0 CFU/ml
- n = 2 (Log CFU/ml) ([3]; time-point 2 hours): 0 CFU/ml
- n = 3 (Log CFU/ml) ([3]; time-point 2 hours): 0 CFU/ml
- Average (Log CFU/ml) ([3]; time-point 4 hours): 29 CFU/ml
- n = 1 (Log CFU/ml) ([3]; time-point 4 hours): 0 CFU/ml
- n = 2 (Log CFU/ml) ([3]; time-point 4 hours): 0 CFU/ml
- n = 3 (Log CFU/ml) ([3]; time-point 4 hours): 85 CFU/ml
- Average (Log CFU/ml) ([3]; time-point 6 hours): 1334 CFU/ml
- n = 1 (Log CFU/ml) ([3]; time-point 6 hours): 0 CFU/ml
- n = 2 (Log CFU/ml) ([3]; time-point 6 hours): 0 CFU/ml
- n = 3 (Log CFU/ml) ([3]; time-point 6 hours): 4000 CFU/ml
- Average (Log CFU/ml) ([3]; time-point 24 hours): 6667.333 CFU/ml
- n = 1 (Log CFU/ml) ([3]; time-point 24 hours): 0 CFU/ml
- n = 2 (Log CFU/ml) ([3]; time-point 24 hours): 20000 CFU/ml
- n = 3 (Log CFU/ml) ([3]; time-point 24 hours): 0 CFU/ml
- Average (Log CFU/ml) ([4]; time-point 1 hours): 18850000 CFU/ml
- n = 2 (Log CFU/ml) ([4]; time-point 1 hours): 36000000 CFU/ml
- viable count ([4]; time-point 1 hours): 1.7e+06 CFU/mL
- Average (CFU/ml) ([4]; time-point 2 hours): 505000 CFU/ml
- n = 2 (Log CFU/ml) ([4]; time-point 2 hours): 900000 CFU/ml
- viable count ([4]; time-point 2 hours): 110000 CFU/mL
- Average (CFU/ml) ([4]; time-point 4 hours): 0 CFU/ml
- n = 2 (CFU/ml) ([4]; time-point 4 hours): 0 CFU/ml
- viable count ([4]; time-point 4 hours): 0 CFU/mL
- Average (CFU/ml) ([4]; time-point 6 hours): 0 CFU/ml
- n = 2 (CFU/ml) ([4]; time-point 6 hours): 0 CFU/ml
- viable count ([4]; time-point 6 hours): 0 CFU/mL
- Average (CFU/ml) ([4]; time-point 24 hours): 0 CFU/ml
- n = 2 (CFU/ml) ([4]; time-point 24 hours): 0 CFU/ml
- viable count ([4]; time-point 24 hours): 0 CFU/mL
- +PABN MIC ([5]; PABN at 25 μg/ml): 4 µg/mL
- +PABN + Mg MIC ([5]; PABN at 25 μg/ml with 1 mM MgSO4): 2 µg/mL
- MIC ([5]; CCCP at 10 μg/ml, read-out: +CCCP MIC): > 32 µg/mL
- MIC ([5]; no EPI, read-out: Control with no EPI MIC): > 32 µg/mL
- +PABN MIC ([6]; NCTC 13437, PABN at 25 μg/ml): 16 µg/mL
- +PABN + Mg MIC ([6]; NCTC 13437, PABN at 25 μg/ml with 1 mM MgSO4): 16 µg/mL
- MIC ([6]; NCTC13437, read-out: +CCCP MIC): > 32 µg/mL
- MIC ([6]; NCTC13437, read-out: Control with no EPI MIC): > 32 µg/mL
- +PABN MIC ([7]; NCTC 13424, PABN at 25 μg/ml): 0.125 µg/mL
- +PABN + Mg MIC ([7]; NCTC 13424, PABN at 25 μg/ml with 1 mM MgSO4): 0.25 µg/mL
- MIC ([7]; read-out: +CCCP MIC): 0.25 µg/mL (≈ 0.381 µM)
- MIC ([7]; read-out: Control with no EPI MIC): 0.5 µg/mL (≈ 0.761 µM)
